Data from patent publication US12508261B2, “Methods of treating depression with vortioxetine” (Rundle Research LLC, priority 2017, dated 2025).
Several values for one entry are separate records, joined by “and”; a condition that tells them apart may be missing. Equal entries are not always repeated. Where two headings read alike, the source gives them in different places.

Assay: Clinical pharmacokinetic study (RUN-001): vortioxetine 5 mg once daily for 29 days, then 28 days washout, obese vs normal-weight subjects
Type: in vivo, human
Conditions: for Observed Clss: (5 mg/day)/AUC29; for Predicted CLss: (5 mg/day)/Css; for Observed accumulation ratio: AUC29/AUC1; for Predicted accumulation ratio: from elimination rate constant and 1 day dose interval
Description: To test if the obese patients would require different washout guidelines for preventing serotonin syndrome, 16 obese subjects (BMI≥35) and 13 normal subjects (BMI<25) completed a clinical trial where they were administered daily with low doses (5 mg/day) of vortioxetine for 29 days in a controlled study. All subjects were subsequently tracked for 28 days after discontinuing vortioxetine on day 29. Blood samples were collected and processed according to standard techniques.
The normal-weight control group consisted of healthy male and female volunteers aged 18 to 45 years. Their body mass index (BMI) values fell in the range of […]. […] Normal weight and obese subjects were matched as closely as possible for gender and age.
CYP2D6 genotype status was determined from whole blood samples drawn from each subject. Known alleles of CYP2D6 were tested for, as well as the presence of gene duplications (LabCorp, Inc.). CYP2D6 metabolizer status was categorized as ultra-rapid, extensive, intermediate, or poor. Ultra-rapid and poor metabolizers were not included in the study.
All subjects received vortioxetine, 5 mg once daily in the morning, for 29 days. The first dose was on Day 1, and the last dose was on Day 29. Blood sampling continued for another 28 days after the last dose, through Day 57.
Subjects spent 12 hours in the study unit on Day 1 (first dose of vortioxetine) and Day 29 (last dose of vortioxetine). On those two study days, venous blood samples (7 mL each) were drawn prior to the dose of vortioxetine, and at 1, 2, 4, 6, 8, 10, and 12 hours after dosage.
During the 29-day period of daily vortioxetine administration, subjects returned to the study unit in the morning of the following study days: 2, 3, 5, 8, 10, 12, 15, 17, 19, 22, 24, 26, and 29. At each visit, a single venous blood sample (7 mL) was drawn before the daily dose of vortioxetine. Subjects underwent a brief interview to assess subjective effects and possible adverse events. Subjects were then discharged until the next scheduled visit. They were provided with vortioxetine doses sufficient for daily morning administration until the next visit. No more than 2 consecutive doses of vortioxetine were taken on an outpatient basis.
On Day 29 (the final dose of vortioxetine), subjects spent 12 hours in the study unit as described above. They returned to the study unit for a single blood sample on the mornings of the following Days: 30, 31, 33, 36, 38, 40, 43, 45, 47, 50, 52, 54, and 57.
Plasma concentrations of vortioxetine were determined by liquid chromatography—mass spectrometry using a Shimadzu HPLC system coupled to a Sciex API-4000 mass spectrometer.
The internal standard (vortioxetine-d8) was added to calibration standards, quality control samples, and unknown study samples. All samples were extracted with methyl tert-butyl ether. The organic phase was separated and evaporated to dryness; the reconstituted extract was injected into the HPLC system. The HPLC column was a Unison UK-C18, 50 mm×2 mm, 3 micron particle size. The mobile phase consisted of an organic component (0.1% formic acid in acetonitrile) and an aqueous component (0.1% formic acid and 2 mM ammonium acetate in water). This was delivered in gradient mode at a net flow rate of 0.4 mL/min, with the organic fraction varying from 40% to 96%. m/z monitored were: 299.1/150.1 for vortioxetine, and 307.1/153 for vortioxetine-d8. The limit of quantitation was 0.1 ng/mL. […] All samples from a given study subject were extracted and analyzed at the same time using the same calibration standards.
Based on the clinical trials discussed above, several equations were derived which allow an individual to calculate the washout period (i.e., the time between stopping vortioxetine and initiating treatment with an MAOI). Data points to consisted of pre-dose plasma vortioxetine concentration (C) on each study day (t), both during (Days 1-29) and after (Days 30-57) the period of vortioxetine administration. […]

[1] = Normal-weight subjects, mean ± SD

Question: For Cc1ccc(Sc2ccccc2N2CCNCC2)c(C)c1 [vortioxetine], which Css (Normal-weight subjects, 5 mg/day, mean ± SD) is on record?
Answer: 3.75 ± 1.72 ng/mL

Question: What about the “Observed Clss” value [1] of the same compound?
Answer: 903 ± 450 mL/min

Question: What about the “Predicted CLss” value [1] of the same compound?
Answer: 1172 ± 679 mL/min

Question: And the Observed accumulation ratio [1]?
Answer: 4.46 ± 1.10

Question: What about the Predicted accumulation ratio [1] of the same compound?
Answer: 3.72 ± 0.77

Question: And the Css (Obese subjects, 5 mg/day, mean ± SD)?
Answer: 4.23 ± 1.68 ng/mL

Question: What about the “Observed Clss” value (Obese subjects, mean ± SD) of the same compound?
Answer: 809 ± 331 mL/min

Question: What about the “Predicted CLss” value (Obese subjects, mean ± SD) of the same compound?
Answer: 935 ± 362 mL/min

Question: And the Observed accumulation ratio (Obese subjects, mean ± SD)?
Answer: 5.24 ± 1.86

Question: And the Predicted accumulation ratio (Obese subjects, mean ± SD)?
Answer: 5.22 ± 1.75

Question: What about the half-life (both sexes, human, plasma, 5 mg/day, Normal-weight subjects, 5 mg/day, mean ± SD, read-out: Washout half-life (converted)) of the same compound?
Answer: 53 h

Question: What about the half-life (both sexes, human, plasma, 5 mg/day, Obese subjects (BMI>=35), 5 mg/day, mean ± SD, read-out: Washout half-life (converted)) of the same compound?
Answer: 78.2 h

Question: What about the half-life (both sexes, human, plasma, 5 mg/day, normal weight patients, read-out: elimination half-life (converted)) of the same compound?
Answer: 53 h

Question: And the concentration at 504 h (both sexes, human, plasma, 5 mg/day, normal patients (non-obese and/or normal CYP2D6 metabolizers), read-out: vortioxetine remaining in the blood plasma 21 days after stopping)?
Answer: 0.54 ng/mL

Question: And the AUC(0-t) (both sexes, human, plasma, oral, 5 mg/day, Normal-weight subjects, 5 mg/day, mean ± SD, read-out: AUC0-24 Day 1)?
Answer: 0.0248 ± 0.0081 µg·h/mL

Question: And the AUC(0-t) (both sexes, human, plasma, oral, 5 mg/day, Normal-weight subjects, 5 mg/day, mean ± SD, read-out: AUC0-24 Day 29)?
Answer: 0.112 ± 0.0487 µg·h/mL

Question: What about the half-life (both sexes, human, plasma, oral, 5 mg/day, Obese subjects (BMI>=35), 5 mg/day, mean ± SD, read-out: Accumulation half-life (converted)) of the same compound?
Answer: 79.7 h

Question: And the AUC(0-t) (both sexes, human, plasma, oral, 5 mg/day, Obese subjects, 5 mg/day, mean ± SD, read-out: AUC0-24 Day 1)?
Answer: 0.0226 ± 0.0042 µg·h/mL

Question: And the AUC(0-t) (both sexes, human, plasma, oral, 5 mg/day, Obese subjects, 5 mg/day, mean ± SD, read-out: AUC0-24 Day 29)?
Answer: 0.119 ± 0.0463 µg·h/mL

Question: What about the half-life (both sexes, human, plasma, oral, 5 mg/day, normal subjects, read-out: plasma elimination half-life, range) of the same compound?
Answer: 30 to 80 h

Question: And the half-life (both sexes, human, plasma, oral, 5 mg/day, obese subjects, read-out: plasma elimination half-life, range)?
Answer: 54 to 171 h

Question: And the half-life (human, plasma, 5 mg/day, one obese subject, CYP2D6 intermediate metabolizer (FIG. 8), read-out: accumulation half-life (converted))?
Answer: 173 h

Question: What about the half-life (human, plasma, 5 mg/day, one obese subject, CYP2D6 intermediate metabolizer (FIG. 8), read-out: washout half-life (converted)) of the same compound?
Answer: 168 h

Question: What about the half-life (human, plasma, im, 5 mg/day, individual subject, Normal cohort (BMI<25), IM, read-out: T1/2 (converted)) of the same compound?
Answer: 71.8 h

Question: And the half-life (human, plasma, im, 5 mg/day, individual subject, Obese cohort (BMI>=35), IM, read-out: T1/2 (converted))?
Answer: 171 h

Question: What about the Css (individual subject, Normal cohort (BMI<25), IM, 5 mg/day) of the same compound?
Answer: 7.8 ng/mL

Question: What about the Css (individual subject, Obese cohort (BMI>=35), IM, 5 mg/day) of the same compound?
Answer: 9.27 ng/mL

Question: And the Css (individual subjects, Normal cohort (BMI<25), EM, 5 mg/day)?
Answer: 2.01 ng/mL and 3.31 ng/mL and 3.29 ng/mL and 3.51 ng/mL and 4.06 ng/mL and 3.21 ng/mL and 1.4 ng/mL and 1.54 ng/mL and 5.24 ng/mL and 5.42 ng/mL and 4.14 ng/mL and 3.13 ng/mL

Question: What about the Css (individual subjects, Obese cohort (BMI>=35), EM, 5 mg/day) of the same compound?
Answer: 4.32 ng/mL and 4.58 ng/mL and 2.08 ng/mL and 4.57 ng/mL and 1.97 ng/mL and 3.44 ng/mL and 4.8 ng/mL and 4.75 ng/mL and 4.1 ng/mL and 3.22 ng/mL and 3.39 ng/mL and 3.38 ng/mL and 4.66 ng/mL and 4.85 ng/mL

Question: And the “washout period needed to attain about 0.14% of the initial plasma concentration” value (obese individuals, Equation 2)?
Answer: 31.5 days

Question: What about the “time with measurable drug plasma concentrations after discontinuing vortioxetine” value (obese subjects, 5 mg/day) of the same compound?
Answer: at least 28 days
